According to US20050288215A1, “Inhibition of nuclear export as a treatment for cardiac hypertrophy and heart failure” (priority 2004, published 2005):

Assays:
Assay type in all cases: cell-based
[1] = system: neonatal rat ventricular myocytes (NRVM); test: RNA dot blot analysis of fetal cardiac gene transcripts; conditions: 48 hrs, LMB 18.5 nM (FIG. 2)
Procedure: (§1) Neonatal rat ventricular myocyte (NRVM) preparation and culture. Hearts were dissected from 1 to 3 day-old Sprague-Dawley rats, minced, and digested with collagenase (Worthington; […]) and pancreatin (Sigma; 1× activity equivalent) in 1× Ads buffer (NaCl [116 mM], HEPES [20 mM; pH 7.4], NaH2PO4 [4.8 mM], KCl [5 mM], MgSO4 [[…]], and glucose [5.5 mM]). Cells were centrifuged through a step gradient of Percoll (Pharmacia) to separate myocytes from fibroblasts, and the myocyte pool was further enriched by pre-plating for 2 hours to remove adherent fibroblasts from the cell population. Cells were cultured overnight on dishes coated with gelatin (Sigma; 0.2%) in DMEM containing fetal bovine serum (FBS) (10%), L-glutamine (2 mM), and penicillin-streptomycin. After overnight culture, cells were washed with serum-free medium and maintained in DMEM supplemented with Neutridoma-SP (Roche Applied Science), which contains albumin, insulin, transferrin, and other defined organic and inorganic compounds, at either 0.1% or 0.3% v/v, as indicated.
RNA analysis. NRVM were plated on gelatin-coated 10 cm dishes (2×10^6 cells/dish). Following the indicated treatments, RNA was isolated from cardiomyocytes using Trizol Reagent (Gibco/BRL). Total RNA ([…]) was vacuum blotted onto nitrocellulose membranes (Bio-Rad) using a 96-well format dot blotter (Bio-Rad). Membranes were blocked in 4×SSC containing SDS (1%), 5× Denhardt's Reagent, sodium pyrophosphate (0.05%), and […] sonicated salmon sperm DNA (4 hrs at […]) and incubated with ^32P-end-labeled oligonucleotide probes (1×10^6 cpm/ml; 14 hrs at […]). Sequences of oligonucleotides were as follows: ANF, 5′-[…]-3; a-SK-actin 5′-[…]-3′; a-MHC 5′-[…]-3′; b-MHC 5′-[…]-3′; GAPDH 5′-[…]-3′). Blots were washed twice with 0.5×SSC containing SDS (0.1%; 10 minutes at […]) and analyzed by autoradiography.

[2] = system: neonatal rat ventricular myocytes (NRVM); test: Cell volume measurements by Coulter Counter; conditions: 48 hours
Procedure: as §1
Cell volume measurements. Three-dimensional measurements of isolates NRVM were conducted using a Coulter Model Z2 instrument (Beckman), as previously described (Said et al., 2004). […] Cell volumes are expressed as […].

[3] = system: neonatal rat ventricular myocytes (NRVM); test: SERCA2 immunoblot analysis; conditions: 48 hours, LMB 18.5 nM (FIG. 8)
Procedure: as §1
SERCA and MCIP immunoblot analysis. […] Protein concentrations were determined by Bradford Assay (Bio-Rad) and […] total protein resolved by SDS-PAGE with gradient gels (Invitrogen; 4%-20% polyacrylamide). […]

[4] = system: neonatal rat ventricular myocytes (NRVM); test: α- and β-myosin heavy chain cytoblot assay
Procedure: as §1
α- and β-myosin heavy chain cytoblot assay. […] Cells were washed three times with PBS containing BSA (1%), luminol (Pierce) was added, and luminescence detected using a Fusion Plate Reader (Perkin Elmer/Packard).

[5] = system: neonatal rat ventricular myocytes (NRVM); test: ANF protein by indirect immunofluorescence (perinuclear ANF); parameters: key to Perinuclear ANF: +, presence; −, absence; conditions: for Perinuclear ANF: LMB 18.5 nM
Procedure: as §1
Indirect immunofluorescence. NRVM (2.5×105) were plated on gelatin-coated 6-well dishes. Following the indicated treatments, cells were fixed with formalin (10%) in PBS, permeablized and blocked with PBS containing NP-40 (0.1%) and bovine serum albumin (BSA) (3%), and incubated in the same solution, but with primary antibodies for sarcomeric α-actinin (Sigma, mouse monoclonal; 1:200 dilution) or atrial natriuretic factor (ANF) (Peninsula Labs, rabbit polyclonal; 1:200 dilution). Cells were washed five times with PBS and incubated with fluorescein- or cy3-conjugated secondary antibodies (Jackson Labs, goat polyclonal; 1:200 dilution), followed by a brief incubation with Hoechst dye (Molecular Probes). Cells were washed five times in PBS, one time with water and sequentially covered with mounting solution (Molecular Probes, SlowFade) and glass coverslips. Proteins were visualized with an inverted fluorescence microscope (Olympus, BH-2) at 40× magnification and images captured using a digital camera (Roper Scientific, Photometrics).

[6] = system: neonatal rat ventricular myocytes (NRVM); test: Viability: calcein AM / ethidium staining (LIVE/DEAD kit); parameters: key to Calcein Fluorescence / Ethidium Fluorescence: +, fluorescence; −, no fluorescence; conditions: for Calcein Fluorescence / Ethidium Fluorescence: PE (20 μM), 48 hrs
Procedure: as §1
(§2) Toxicity measurements. Adenylate kinase (AK) was measured in culture supernatants employing the bioluminescent ToxiLight kit (BioWhittaker) according to the manufacturer's instructions. Assays were run in a 96-well format and values measured using a Fusion Plate Reader (Perkin Elmer/Packard). Cell viability was also assessed using the LIVE/DEAD Viability/Cytotoxicity Kit (Molecular Probes). This kit employs calcein AM fluorescent dye, which is retained by viable cells, and an ethidium homodimer, which only enters cells with damaged membranes.

[7] = system: neonatal rat ventricular myocytes (NRVM); test: ANF competition ELISA, secreted ANF in culture supernatants; parameters: ANF induction (secreted ANF in culture supernatants): dose or concentration left out as unconfirmed; conditions: 48 hrs
Procedure: as §1, with “After overnight culture, cells were washed with serum-free medium and maintained in DMEM supplemented with Neutridoma-SP (Roche Applied Science), which contains albumin, insulin, transferrin, and other defined organic and inorganic compounds, at either 0.1% or 0.3% v/v, as indicated.” left out
(§3) ANF competition ELISA and total protein measurements. […] Wells were washed 5× with TBS-T and exposed to TMB substrate (Kirkegaard & Perry; […]), which provides a colorimetric readout, for 30 minutes at room temperature. Reactions were terminated with H2SO4 (2N, […]) and absorbance at 450 nm detected using a Fusion Plate Reader (Perkin Elmer/Packard). […] Color development was allowed to proceed for 30 minutes prior to being measured at 595 nm using a micro-titer plate spectrophotometer (Molecular Devices).

[8] = system: neonatal rat ventricular myocytes (NRVM); test: Sarcomere organization, α-actinin indirect immunofluorescence; parameters: key: +, organized sarcomeres; −, disorganized sarcomeres; conditions: 48 hrs, LMB 18.5 nM
Procedure: as §1
Indirect immunofluorescence. NRVM (2.5×105) were plated on gelatin-coated 6-well dishes. […] Proteins were visualized with an inverted fluorescence microscope (Olympus, BH-2) at 40× magnification and images captured using a digital camera (Roper Scientific, Photometrics).

[9] = system: neonatal rat ventricular myocytes (NRVM); test: Total cellular protein by Bradford assay
Procedure: as §1, with “After overnight culture, cells were washed with serum-free medium and maintained in DMEM supplemented with Neutridoma-SP (Roche Applied Science), which contains albumin, insulin, transferrin, and other defined organic and inorganic compounds, at either 0.1% or 0.3% v/v, as indicated.” left out
as §3

[10] = system: neonatal rat ventricular myocytes (NRVM); test: Toxicity: adenylate kinase (AK) release into culture medium; conditions: 48 hours, LMB 18.5 nM (FIG. 6)
Procedure: as §1, with “After overnight culture, cells were washed with serum-free medium and maintained in DMEM supplemented with Neutridoma-SP (Roche Applied Science), which contains albumin, insulin, transferrin, and other defined organic and inorganic compounds, at either 0.1% or 0.3% v/v, as indicated.” left out
as §2, with “This kit employs calcein AM fluorescent dye, which is retained by viable cells, and an ethidium homodimer, which only enters cells with damaged membranes.” left out

CCC(=C/[C@H](C)C/C=C/C(C)=C/[C@@H](C)C(=O)[C@@H](C)[C@H](O)[C@@H](C)C/C(C)=C/C(=O)O)/C=C/[C@@H]1OC(=O)C=C[C@@H]1C [LMB, leptomycin B]
PE-induced downregulation of α-MyHC transcripts [1]: inhibited the subtle downregulation | PE-induced β-MyHC mRNA expression [1]: repressed | PE-mediated induction of ANF mRNA transcripts [1]: effectively blocked | PE-mediated induction of α-skeletal actin (α-SK-actin) mRNA transcripts [1]: effectively blocked | Cell size (cell volume, Coulter Counter) ([2]; LMB 18.5 nM (FIG. 5)): diminished cell size | PE-induced downregulation of SERCA2 expression [3]: appeared to repress the modest downregulation | T3-induced SERCA2 protein expression ([3]; T3 (3 nM)): failed to alter | PE-induced β-MyHC protein expression ([4]; 48 hrs, LMB 18.5 nM (FIG. 3)): repressed | T3-mediated coordinate regulation of α- and β-MyHC protein expression ([4]; T3 (3 nM), 48 hours, LMB 18.5 nM (FIG. 7)): no significant effect | ANF immunostaining ([5]; NRVM stimulated with PE or FBS, LMB present): markedly reduced | ANF expression induced by prostaglandin F2a and endothelin-1 ([5]; NRVM, immunofluorescence, LMB 18.5 nM (Table 3)): efficiently blocked ANF expression | Perinuclear ANF ([5]; NRVM, stimulus ET-1 (50 nM)): − | Perinuclear ANF ([5]; NRVM, stimulus FBS (5%)): − | Perinuclear ANF ([5]; NRVM, stimulus PE (20 μM)): − | Perinuclear ANF ([5]; NRVM, stimulus PGF2a (10 μM)): − | Ethidium bromide staining (compromised membranes) ([6]; LMB-treated cells (Table 5)): not significantly stained by ethidium bromide | Calcein dye retention (viability) ([6]; LMB-treated cells vs control cells (Table 5)): retained calcein dye as effectively as control cells | Calcein Fluorescence ([6]; LMB 2.3 nM): + | Ethidium Fluorescence ([6]; LMB 2.3 nM): − | Calcein Fluorescence ([6]; LMB 4.6 nM): + | Ethidium Fluorescence ([6]; LMB 4.6 nM): − | Calcein Fluorescence ([6]; LMB 9.25 nM): + | Ethidium Fluorescence ([6]; LMB 9.25 nM): − | Calcein Fluorescence ([6]; LMB 18.5 nM): + | Ethidium Fluorescence ([6]; LMB 18.5 nM): − | ANF induction (secreted ANF in culture supernatants) ([7]; low nanomolar concentrations of LMB (FIG. 1)): efficiently blocked ANF induction | Organized Sarcomeres ([8]; stimulus FBS (5%)): − | Organized Sarcomeres ([8]; stimulus PE (20 μM)): − | Agonist-induced increase in total cellular protein content ([9]; PE or FBS, 72 hrs (text; FIG. 4 legend 48 hours), LMB 18.5 nM): effectively blocked | Adenylate kinase (AK) in culture medium [10]: did not increase AK

Cc1ccc2[nH]c3c(c2c1)CCCC3NC(=O)CCl (stereo not drawn) [compound 5219668, 2-chloro-N-(6-methyl-2,3,4,9-tetrahydro-1H-carbazol-1-yl)acetamide]
Agonist-induced increase in cell size (cell volume) ([2]; PE (20 μM), 5219668 1.25 μM (FIG. 11)): effectively blocked the increases | ANF induction in response to PE (secreted ANF) ([7]; PE (20 μM), 5219668 1.25 μM (FIG. 9)): efficiently blocked ANF induction | Agonist-induced increase in protein synthesis (total cellular protein) ([9]; PE (20 μM), 48 hours, 5219668 1.25 μM (FIG. 10)): effectively blocked the increases
